Source: patent US20040171062A1, “Methods for the design of molecular scaffolds and ligands” (Plexxikon, Inc., priority 2002, published 2004)

Columns and labels:
Assay type in all cases: biochemical
[1] = target: T1, Pyk2 kinase domain residues 419 to 691 (Homo sapiens, UniProt Q14289); assay: Pyk2 kinase domain AlphaScreen activity and inhibition by ATP analogs; settings: Pyk2 at 8 ng/well, ATP at 10 uM; for IC50: fit y = ((Vmax*x^n)/(K^n + x^n)) + Y2; for effect on PYK2: in the concentration tested
T1 construct: PYK2 kinase domain I420-M691; hexa-histidine (thrombin-cleavable, pET15S; leaves GSHM before I420) (N, cleaved yes); made in house; host or cells: E. coli BL21 (DE3) pLysS
Description: Inhibition by ATP analogs was tested with Pyk2 at 8 ng/well and ATP at 10 uM.

[2] = target: T1, Pyk2 kinase domain residues 419 to 691; assay: as above
Pyk2 = target: T2, Pyk2 (Homo sapiens, UniProt Q14289); assay: Pyk-2 inhibitory activity (kinase ELISA, poly(Glu:Tyr))
T2 construct: the Pyk2 was the kinase domain-(His)6 fusion; (His)6 (C); made in house; host or cells: E. coli BL21
Description: Csk (and Pyk2 in a separate assay) were mixed with poly(Glu:Tyr) and coated on an ELISA plate in kinase buffer. Test compounds were added to each well at a concentration of about 200 uM. ATP was added to a final concentration of 2 uM. After 1 hour of incubation at 37 C, phospho-Tyr was detected with ELISA solution. Color development of TMB was measured at 650 nm. The Csk was the (His)6-kinase domain fusion, and the Pyk2 was the kinase domain-(His)6 fusion, both produced in BL21 E. coli. The kinase buffer was 50 mM HEPES, pH 7.2 with 100 uM of manganese. The ELISA solution was 1:1000 at 5% milk.

PIM-1 = target: T3, PIM-1 (Homo sapiens, UniProt P11309); assay: PIM-1 kinase activity assay (MBP substrate, 33P-ATP FlashPlate)
T3 construct: expressing PIM-1 kinase domain (29-313) was suspended; made in house; host or cells: E. coli BL21(DE3)pLysS
T3 sequence (P11309 29-313): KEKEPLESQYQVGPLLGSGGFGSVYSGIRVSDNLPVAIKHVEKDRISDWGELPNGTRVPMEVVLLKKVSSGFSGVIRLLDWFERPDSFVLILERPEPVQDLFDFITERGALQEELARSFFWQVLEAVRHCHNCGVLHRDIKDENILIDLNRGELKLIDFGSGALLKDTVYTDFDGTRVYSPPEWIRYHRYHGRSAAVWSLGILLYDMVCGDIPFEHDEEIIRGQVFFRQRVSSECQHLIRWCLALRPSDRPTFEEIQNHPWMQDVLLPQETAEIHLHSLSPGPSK
Description: Inhibitory or exhitory activity of compounds binding to PIM-1 was determined using a kinase assay.
An assay for kinase activity that can be used for PIM kinases, e.g., PIM-1, can be performed according to the following procedure using purified kinase using myelin basic protein (MBP) as substrate.
Coat scintillation plate suitable for radioactivity counting (e.g., FlashPlate from Perkin-Elmer, such as the SMP200(basic)) with kinase+MBP mix (final 100 ng+300 ng/well) at 90-μL/well in kinase buffer. Add compounds at 1 μL/well from 10 mM stock in DMSO. Positive control wells are added with 1 μL of DMSO. Negative control wells are added with 2 μL of EDTA stock solution. ATP solution (10 μL) is added to each well to provide a final concentration of cold ATP is 2 μM, and 50 nCi ATPγ[^33P]. The plate is shaken briefly, and a count is taken to initiate count (IC) using an apparatus adapted for counting with the plate selected, e.g., Perkin-Elmer Trilux. Store the plate at 37° C. for 4 hrs, then count again to provide final count (FC).
Net 33P incorporation (NI) is calculated as: NI=FC−IC.
The effect of the present of a test compound can then be calculated as the percent of the positive control as: % PC=[(NI−NC)/(PC−NC)]×100, where NC is the net incorporation for the negative control, and PC is the net incorporation for the positive control. […]

T1 sequence (Q14289 420-691): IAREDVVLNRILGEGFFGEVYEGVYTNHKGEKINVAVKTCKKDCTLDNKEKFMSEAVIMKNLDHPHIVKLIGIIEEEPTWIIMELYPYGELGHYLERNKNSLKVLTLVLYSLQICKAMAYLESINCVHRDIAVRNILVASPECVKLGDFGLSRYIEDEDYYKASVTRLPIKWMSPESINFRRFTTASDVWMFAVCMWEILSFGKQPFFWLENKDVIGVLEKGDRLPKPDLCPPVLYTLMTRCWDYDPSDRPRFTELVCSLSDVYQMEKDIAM
T2 sequence (Q14289 425-683 limits assumed): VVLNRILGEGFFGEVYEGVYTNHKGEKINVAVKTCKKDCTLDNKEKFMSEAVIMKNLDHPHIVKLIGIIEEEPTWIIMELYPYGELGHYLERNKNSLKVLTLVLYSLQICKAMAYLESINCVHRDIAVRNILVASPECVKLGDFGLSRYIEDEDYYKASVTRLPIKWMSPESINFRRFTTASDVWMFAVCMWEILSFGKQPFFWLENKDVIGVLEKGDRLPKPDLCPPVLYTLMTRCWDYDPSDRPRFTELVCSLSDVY

Nc1ncnc2c1ncn2C1OC(COP(=O)(O)OP(=O)(O)NP(=O)(O)O)C(O)C1O (centres unmarked) [AMPPNP, 5′-adenylylimidodiphosphate]
IC50 [1]: 18.1 µM

Nc1ncnc2c1ncn2[C@@H]1O[C@H](CO)[C@@H](O)[C@H]1O [Adenosine]
effect on PYK2 [1]: little effect

Nc1ncnc2c1ncn2[C@@H]1O[C@H](COP(=O)(O)OP(=O)(O)OP(=O)(O)O)[C@@H](O)[C@H]1O [ATP]
K (Pyk2 activity) ([2]; Pyk2 8 ng/well, 384-well plate, fit y = (Vmax*x)/(K + x)): 7.37 µM | Kd ([2]; Pyk2 at 8 ng/well in 384-well plate, AlphaScreen): 7.34 µM

Nc1ncnc2c1ncn2[C@@H]1O[C@H](COP(=O)(O)O)[C@@H](O)[C@H]1O [AMP]
IC50 [1]: 80.2 µM

c1cnc2[nH]ccc2c1 [Formula III, R1=R2=R3=R4=R5=H]
IC50 (Pyk2): > 200 µM | inhibition at 200 µM (PIM-1; at 200 μM concentration): 8% | IC50 (PIM-1; read-out: IC50, inhibitory activity against PIM-1): > 200 µM

Nc1ncnc2c1ncn2[C@@H]1O[C@H](COP(=O)(O)OP(=O)(O)OP(O)(O)=S)[C@@H](O)[C@H]1O [ATP-g-S]
affinity with Pyk2 [1]: 14 µM | IC50 [1]: 13.6 µM

Nc1ncnc2c1ncn2[C@@H]1O[C@H](COP(=O)(O)OP(=O)(O)O)[C@@H](O)[C@H]1O [ADT]
affinity with Pyk2 [1]: 14 µM | IC50 [1]: 14.9 µM

Nc1ncnc2c1ncn2[C@@H]1O[C@H](COP(=O)(O)OP(=O)(O)CP(=O)(O)O)[C@@H](O)[C@H]1O [AMPPCP]
IC50 [1]: 7690 µM | effect on PYK2 [1]: little effect
